Assay results published in US20050123906A1, “Protein modulation” (priority 2003, published 2005).
Non-standard residues stand in square brackets, D forms with d. Residues, ends and D or L forms follow the SMILES beside them. Nle = CCCC[C@H](N)C(=O)O

Experiments:
CFP-APO = experiment: Vif-mediated depletion of CFP-APO with proteasome inhibition (immuno-blot, confocal microscopy); type: cell-based, human; details: for CFP-APO levels in the absence of Vif: 293T cells, pNL-A1Δvif
Experimental: (§1) 293T cells were maintained in a humidified incubator (5% CO2) at 37° C. in Dulbecco's modified Eagle's medium (DMEM; Invitrogen) supplemented with 10% fetal bovine serum, 100 units/ml penicillin and 100 μg/ml streptomycin (Invitrogen). Qiagen-purified plasmid DNA (Qiagen, Valencia, Calif.) was transfected into 293T cells using Lipofectaminem 2000 lipofection agent (Invitrogen). For Western blot and immunoprecipitation experiments, 293T cells were transfected in either 6 or 12 well plates when the cells were ˜60% confluent. The amount of vector used and the molar ratio of vector for co-transfection experiments are described in the Results and figure legends. When necessary, final DNA amounts were made equal by the addition of pGEM (Promega). For live imaging and immuno-localization, 293T cells were seeded into poly-d-lysine coated 35 mm glass bottom culture dishes and transfected when the cells were ˜50% confluent. For proteasome inhibition studies, culture media containing 100 μM of N-Acetyl-Leu-Leu-Nle-CHO (ALLN, Calbiochem, La Jolla, Calif.) or the equivalent volume of DMSO was added to cells 12 hours prior to harvesting or imaging 36 hours post-transfection.
(§2) The level of Vif-mediated depletion of APOBEC3G was further determined over a broad range of Vif (pNL-A1):APOBEC3G (pCFP-APO) vector ratios ranging from 1:1 to 1:0.0625, where 1 refers to 130 fmoles of vector. The level of depletion was determined by comparing the steady-state levels of CFP-APO when co-expressed with Vif to the equivalent Δvif control (pNL-A1Δvif). […]
To prepare total protein lysates, each well of a 6- or 12-well plate was washed once in phosphate buffered saline (PBS, Invitrogen) and then lysed in either 400 or 200 μl, respectively, of Mammalian Protein Extraction Reagent (M-PER, Pierce, Rockford, Ill.) supplemented with 0.5% (v/v) Triton-X 100 (Pierce), 150 mM NaCl, 5 mM EDTA, and a 1/100 (v/v) dilution of a protease inhibitor cocktail for mammalian tissue for 30 minutes at 4° C. with gentle rotation. […] Protein concentration was determined by Dc protein assay (Bio-Rad, Hercules, Calif.). […]

Vif = experiment: Steady-state levels of Vif with proteasome inhibition (immuno-blot); type: cell-based, HIV-1; details: 293T cells, presence or absence of CFP-APO, 100 μM ALLN 12 hours
Experimental: as §1, with “For proteasome inhibition studies, culture media containing 100 μM of N-Acetyl-Leu-Leu-Nle-CHO (ALLN, Calbiochem, La Jolla, Calif.) or the equivalent volume of DMSO was added to cells 12 hours prior to harvesting or imaging 36 hours post-transfection.” left out
as §2

CCCC[C@@H](C=O)NC(=O)[C@H](CC(C)C)NC(=O)[C@H](CC(C)C)NC(C)=O [ALLN, N-Acetyl-Leu-Leu-Nle-CHO] (Ac-Leu-Leu-[Nle]-aldehyde)
CFP-APO levels by confocal microscopy (CFP-APO; 293T cells expressing Vif, pNL-A1:pCFP-APO 1:0.25, proteasome inhibition): elevated | CFP-APO levels in the absence of Vif (CFP-APO; all ratios except 1:0.0625, 100 μM ALLN 12 hours): not significantly affected | CFP-APO levels in the absence of Vif (CFP-APO; lowest pCFP-APO input (1:0.0625 ratio), 100 μM ALLN 12 hours): modest reduction in expression | Steady-state levels of Vif (Vif): elevated the steady-state levels of Vif
